Consider ten molecules from patent US20150344444A1, “BET-PROTEIN-INHIBITING DIHYDROXYQUINOXALINONES” (BAYER PHARMA AKTIENGESELLSCHAFT, priority 2012, published 2015).

In test [1] the target is T1, BRD4 Bromo Domain 2 [BRD4(2)] (Homo sapiens, UniProt O60885).
T1 construct: N-terminally His6-tagged BRD4(2) (amino acids 357-445); made in house; host or cells: E. coli
Briefly: BRD4(2)/acetylated peptide H4 binding assay (TR-FRET). The following applies: inhibition of interaction between His6-tagged BRD4(2) (amino acids 357-445) and acetylated histone H4 peptide. The text has this:
Protein-Protein Interaction Assay: BRD4/Acetylated Peptide H4 Binding Assay
2. Assay Description for BRD4 Bromo Domain 2 [BRD4(2)]
To assess the BRD4(2) binding strength of the substances described in this application, the ability thereof to inhibit the interaction between BRD4(2) and acetylated histone H4 in a dose-dependent manner was quantified.
For this purpose, a time-resolved fluorescence resonance energy transfer (TR-FRET) assay was used, which measures the binding between N-terminally His6-tagged BRD4(2) (amino acids 357-445) and a synthetic acetylated histone H4 (Ac-H4) peptide with sequence SGRGK(Ac)GGK(Ac)GLGK(Ac)GGAK(Ac)RHRKVLRDNGSGSK-biotin. The recombinant BRD4(2) protein produced in house according to Filippakopoulos et al., Cell, 2012, 149:214-231 was expressed in E. coli and purified by means of (Ni-NTA) affinity and (Sephadex G-75) size exclusion chromatography. The Ac-H4 peptide can be purchased, for example, from Biosyntan (Berlin, Germany).
In the assay, typically 11 different concentrations of each substance (0.1 nM, 0.33 nM, 1.1 nM, 3.8 nM, 13 nM, 44 nM, 0.15 μM, 0.51 μM, 1.7 μM, 5.9 μM and 20 μM) were analysed as duplicates on the same microtitre plate. For this purpose, 100-fold concentrated solutions in DMSO were prepared by serial dilutions (1:3.4) of a 2 mM stock solution into a clear, 384-well microtitre plate (Greiner Bio-One, Frickenhausen, Germany). From this, 50 nl were transferred into a black test plate (Greiner Bio-One, Frickenhausen, Germany). The test was started by the addition of 2 μl of a 2.5-fold concentrated BRD4(2) solution (final concentration typically 100 nM in the 5 μl of reaction volume) in aqueous assay buffer [50 mM HEPES pH 7.5, 50 mM sodium chloride (NaCl); 50 mM potassium fluoride (KF); 0.25 mM CHAPS and 0.05% serum albumin (BSA)] to the substances in the test plate. This was followed by a 10-minute incubation step at 22° C. for the pre-equilibration of putative complexes between BRD4(2) and the substances.
The mixture was then incubated in the dark at 22° C. for one hour and then at 4° C. for at least 3 hours and for no longer than overnight. The formation of BRD4(2)/Ac-H4 complexes was determined by the measurement of the resonance energy transfer from the streptavidin-Eu chelate to the anti-6His-XL665 antibody present in the reaction. For this purpose, the fluorescence emission was measured at 620 nm and 665 nm after excitation at 330-350 nm in a TR-FRET measuring instrument, for example a Rubystar or Pherastar (both from BMG Lab Technologies, Offenburg, Germany) or a Viewlux (Perkin-Elmer). The ratio of the emissions at 665 nm and at 622 nm was taken as an indicator of the amount of BRD4(2)/Ac-H4 complexes formed.
The data (ratios) obtained were normalized, with 0% inhibition corresponding to the mean from the measurements for a set of controls (typically 32 data points) in which all the reagents were present. In these, in place of test substances, 50 nl of DMSO (100%) were used Inhibition of 100% corresponded to the mean from the measurements for a set of controls (typically 32 data points) in which all the reagents except BRD4(2) were present. The IC50 was determined by regression analysis based on a 4-parameter equation (minimum, maximum, IC50, Hill; Y=max+(min−max)/(1+(X/IC50)Hill)).
On the technique in general: Time-resolved FRET reads energy transfer from a long-lived donor to a nearby acceptor.

The test system of another test is MOLM-13 cells. Kind of test: MOLM-13 cell proliferation assay (alamarBlue). Format: cell-based. The following applies: inhibition of cell proliferation, 96 hours, human AML cell line. The procedure:
(§1) In accordance with the invention, the ability of the substances to inhibit cell proliferation was determined Cell viability was determined by means of the alamarBlue® reagent (Invitrogen) in a Victor X3 Multilabel Reader (Perkin Elmer). The excitation wavelength was 530 nm and the emission wavelength […].
The MOLM-13 cells (DSMZ, ACC 554) were sown at a concentration of 4000 cells/well in 100 μl of growth medium (RPMI1640, 10% FCS) on 96-well microtitre plates.
(§2) After overnight incubation at 37° C., the fluorescence values were determined (CI values). Then the plates were treated with various substance dilutions (1E-5 M, 3E-6 M, 1E-6 M, 3E-7 M, 1E-7 M, 3E-8 M, 1E-8 M) and incubated at 37° C. over 96 hours (MOLM-13, B16F10 cells) or 120 hours (MOLP-8 cells). Subsequently, the fluorescence values were determined (CO values). For the data analysis, the CI values were subtracted from the CO values and the results were compared between cells which had been treated with various dilutions of the substance or only with buffer solution. The IC50 values (substance concentration needed for 50% inhibition of cell proliferation) were calculated therefrom.
MOLM-13 human AML (acute myeloid leukaemia) cell line
A general note: Resazurin is reduced to fluorescent resorufin, in cell work by metabolically active cells.

The subject of another test is MOLP-8 cells. Kind of test: MOLP-8 cell proliferation assay (alamarBlue). The note with it: inhibition of cell proliferation, 120 hours, human multiple myeloma cell line. It counts as cell-based. The protocol: as §1
The MOLP-8 cells (DSMZ, ACC 569) were sown at a concentration of 4000 cells/well in 100 μl of growth medium (RPMI1640, 20% FCS) on 96-well microtitre plates.
as §2
MOLP-8 human multiple myeloma cell line

As a reminder, the IC50 is the point on the concentration scale where inhibition reaches its midpoint. The low end stands for higher potency, the high end for lower potency.

Each structure is given as a SMILES string.

As to `COc1ccc(CN2c3cc(Nc4ccc(C(=O)N5CC6(COC6)C5)cc4)ccc3N(C)C(=O)[C@H]2C)cc1` [Example 20, (3R)-4-(4-methoxybenzyl)-1,3-dimethyl-6-{[4-(2-oxa-6-azaspiro[3.3]hept-6-ylcarbonyl)phenyl]amino}-3,4-dihydroquinoxalin-2(1H)-one], the figures for the IC50 (in test [1]; with MOLM-13 cells; with MOLP-8 cells) were 0.043 µM, 0.351 µM and 0.12 µM, respectively.
Regarding `C[C@@H]1C(=O)N(C)c2ccc(Nc3ccc(C(=O)NC4CC4)cc3)cc2N1C1CCOCC1` [Example 35, N-cyclopropyl-4-{[(3R)-1,3-dimethyl-2-oxo-4-(tetrahydro-2H-pyran-4-yl)-1,2,3,4-tetrahydroquinoxalin-6-yl]amino}benzamide], the half-maximal inhibitory concentration (IC50) was 0.217 µM in test [1], 2.48 µM in the test with MOLM-13 cells and 1.39 µM with MOLP-8 cells.
With `C[C@@H]1C(=O)N(C)c2ccc(Nc3ccc(C(=O)NC4CC4)cc3)cc2N1Cc1ccccc1` [Example 10, 4-{[(3R)-4-benzyl-1,3-dimethyl-2-oxo-1,2,3,4-tetrahydroquinoxalin-6-yl]amino}-N-cyclopropylbenzamide], the results for the IC50 (in test [1]; in the test on MOLM-13 cells; in the test with MOLP-8 cells) were 0.064 µM, 0.527 µM and 0.26 µM, respectively.
The corresponding values for `C[C@@H]1C(=O)N(C)c2ccc(Nc3ccc(C(=O)N4CCOCC4)cc3)cc2N1C1CCOCC1` [Example 27, (3R)-1,3-dimethyl-6-{[4-(morpholin-4-ylcarbonyl)phenyl]amino}-4-(tetrahydro-2H-pyran-4-yl)-3,4-dihydroquinoxalin-2(1H)-one] are 0.419 µM, 1.95 µM and 1.13 µM.
Turning to `C[C@@H]1C(=O)N(C)c2ccc(Nc3ccc(S(=O)(=O)N4CCN(C)CC4)cc3)cc2N1C1CCOCC1` [Example 48, (3R)-1,3-dimethyl-6-({4-[(4-methylpiperazin-1-yl)sulphonyl]phenyl}amino)-4-(tetrahydro-2H-pyran-4-yl)-3,4-dihydroquinoxalin-2(1H)-one], the figures for the 50% inhibitory concentration (IC50) (in test [1]; in the test with MOLM-13 cells; in the test with MOLP-8 cells) were 0.112 µM, 1.25 µM and 0.803 µM, respectively.
Regarding `C[C@@H]1C(=O)N(C)c2ccc(Nc3ccc(C(=O)NC4CCN(C)CC4)cc3)cc2N1C1CCOCC1` [Example 26, 4-{[(3R)-1,3-dimethyl-2-oxo-4-(tetrahydro-2H-pyran-4-yl)-1,2,3,4-tetrahydroquinoxalin-6-yl]amino}-N-(1-methylpiperidin-4-yl)benzamide], the IC50 in test [1] stood at 0.391 µM; with MOLM-13 cells it was 1.58 µM; with MOLP-8 cells, 1.03 µM.
As to `C[C@@H]1C(=O)N(C)c2ccc(Nc3ccc(S(=O)(=O)N4CCOCC4)cc3)cc2N1Cc1ccccc1` [Example 13, (3R)-4-benzyl-1,3-dimethyl-6-{[4-(morpholin-4-ylsulphonyl)phenyl]amino}-3,4-dihydroquinoxalin-2(1H)-one], the results for the IC50 (in test [1]; with MOLM-13 cells; in the test on MOLP-8 cells) were 0.051 µM, 0.223 µM and 0.098 µM, respectively.
On the same counts, the results for `C[C@@H]1C(=O)N(C)c2ccc(Nc3ccc(C(=O)N4CC5(COC5)C4)cc3)cc2N1C1CCOCC1` [Example 29] are 0.158 µM, 2.27 µM and 1.12 µM.
Turning to `C[C@@H]1C(=O)N(C)c2ccc(Nc3ccc(C(=O)N(C)C)cc3)cc2N1C1CCCC1` [Example 8, 4-{[(3R)-4-cyclopentyl-1,3-dimethyl-2-oxo-1,2,3,4-tetrahydroquinoxalin-6-yl]amino}-N,N-dimethylbenzamide], the IC50 in test [1] worked out at 0.171 µM; in the test on MOLM-13 cells, 0.627 µM; in the test with MOLP-8 cells it was 0.521 µM.
In the case of `COc1ccc(CN2c3cc(Nc4ccc(C(=O)N5CCN(C(C)C)CC5)cc4)ccc3N(C)C(=O)[C@H]2C)cc1` [Example 22, (3R)-4-(4-methoxybenzyl)-1,3-dimethyl-6-[(4-{[4-(propan-2-yl)piperazin-1-yl]carbonyl}phenyl)amino]-3,4-dihydroquinoxalin-2(1H)-one], the IC50 in test [1] came to 0.086 µM; with MOLM-13 cells, 0.261 µM; in the test with MOLP-8 cells, 0.093 µM.
